{
  "source": "paper PMC3788796",
  "about": "“The Antimicrobial Domains of Wheat Puroindolines Are Cell-Penetrating Peptides with Possible Intracellular Mechanisms of Action” (PLoS ONE, 2013)",
  "key": {"[1]": {"test_system": "Saccharomyces cerevisiae (ATCC 287)", "test": "MIC of the peptides against yeast cells", "type": "cell-based", "conditions": "PDB, 96-well two-fold dilution 250 to 2 µg/mL, 0.5–2×10^3 cells/mL, overnight 30°C, growth observed visually", "protocol": "Saccharomyces cerevisiae (ATCC 287) was grown in Potato Dextrose Broth (PDB) overnight at 30°C with shaking at 220 rpm. The cultures were vortexed vigorously and the cell suspension adjusted to 1–5×10^6 cells/mL with PDB (McFarland standard 0.5) and then diluted 1∶200 with PDB to a final concentration of 0.5–2×10^3 cells/mL [37]. The MIC assays were carried out in 96-well plates as described previously. Peptides (PuroA, Pina-M, Pina-W→F and PuroB) in 25 µL volumes were added to the first empty well and a two-fold dilution was carried out across each row with a starting peptide concentration of 250 µg/mL and a final one of 2 µg/mL. Test wells were subsequently inoculated with 75 µL yeast cells (0.5–2×10^3 cells/mL) and incubated overnight at 30°C. Negative control (no peptide) and positive control (fungicide Mycobutanil) wells were also prepared. The MIC was defined as the lowest concentration of the peptide required to inhibit fungal growth, observed visually."}, "[2]": {"test_system": "S. cerevisiae cells", "test": "Propidium iodide uptake by yeast cells", "type": "cell-based, Saccharomyces cerevisiae", "conditions": "peptide 125 µg/mL, 1 h 30°C in PBS pH 7.4, PI 6 µg/mL 5 min; no-peptide control 5.7; average of 4 fields, two independent experiments", "protocol": "S. cerevisiae was grown overnight at 30°C in 100 mL PDB and the cells collected by centrifugation and resuspended in Phosphate Buffered Saline (PBS: 137 mM NaCl, 2.7 mM KCl, 8 mM Na2HPO4, 1.46 mM KH2PO4; pH 7.4) to ∼1.5×10^7 cells/mL (OD600 = 0.6–0.8). 75 µL of the suspension was incubated with 25 µL of stock solutions of PuroA, Pina-M, Pina-W→F, PuroB and indolicidin (to give a final peptide concentration of 64, 125, 250 or 500 µg/mL), or with PBS (for no-peptide controls) for 1 h at 30°C, followed by staining with propidium iodide (PI) as described. PI stock solution (60 µg/mL) was prepared in MilliQ water and stored in dark at −20°C. It was diluted to 12 µg/mL before use, mixed 1∶1 with peptide-treated or untreated yeast cells (to final PI concentration 6 µg/mL), and the samples incubated in the dark for 5 min. A 10 µL aliquot of these was examined using a Nikon Eclipse 50 i fluorescence microscope with 561 nm excitation and 630/22 emission filter, at 400×magnification. The photomicrographs were taken under light and fluorescence for each field. Five randomly selected fields were recorded and scored for each sample."}, "[3]": {"test_system": "plasmid DNA (pBluescript SK+)", "test": "Gel retardation assay for in vitro DNA binding", "conditions": "100 ng plasmid DNA in 10 µL MilliQ water, 1 h room temperature, peptide 16–500 µg/mL, post-electrophoresis EtBr staining, triplicate assays; for Peptide concentration inducing gel retardation, Full: complete inhibition of migration", "protocol": "This test assesses any peptide-DNA binding by noting the retardation of the rate of migration of DNA bands through agarose gels. A number of methods were tested. As per Hsu et al., DNA of a plasmid (200 ng) or a commercial molecular weight marker (50 ng) was mixed with a peptide (to final concentrations of 32, 64, 125 or 250 µg/mL) in 15 µL of 10 mM Tris-1 mM EDTA buffer (pH 8.0), incubated at room temperature for 2 min, then electrophoresed in 0.5% or 1.0% agarose gels containing 0.5 µg/mL ethidium bromide (EtBr). Following Park et al., 100 ng plasmid DNA was mixed with a peptide (to different concentrations) in 20 µL binding buffer (5% glycerol, 10 mM Tris-HCl (pH 8.0), 1 mM EDTA, 1 mM DTT, 20 mM KCl, 50 µg/mL BSA), held for 1 h at room temperature, then electrophoresed in EtBr-containing gels. Finally the protocols were modified to eliminate any interference of EtBr in the initial peptide-DNA binding. Plasmid DNA (100 ng) was mixed with a peptide (to final concentrations of 16, 32, 64, 125, 250 or 500 µg/mL) in 10 µL of MilliQ water, held at room temperature for 1 h and electrophoresed, followed by emersion of gels in EtBr solution (0.5 µg/mL) for 30 min before imaging."}, "[4]": {"test_system": "E. coli (ATCC 25922)", "test": "E. coli filamentation assay (in vivo inhibition of DNA synthesis)", "type": "cell-based, Escherichia coli", "conditions": "peptide 2–250 µg/mL, 3 h 37°C, Crystal Violet, light microscopy 1000×; triplicate", "protocol": "The method as described was used to assess if the PIN-based peptides cause filamentation of E. coli cells, indicative of inhibition of in vivo DNA synthesis. E. coli (ATCC 25922) grown to logarithmic phase (OD600 = 0.2) was diluted to OD600 of ∼0.04. 75 µL of this culture was mixed with 25 µL of a peptide solution (to a final peptide concentration of 2–250 µg/mL) and incubated for 3 h at 37°C. 50 µL of the sample was spotted onto a glass slide, air dried, and stained with Crystal Violet for 1 min. Peptide mixed with water was used as negative control, and the Trp-rich AMP indolicidin (ILPWKWPWWPWRR-NH2) was used as a positive control due to its known filamentation effect. All samples were tested in triplicate. The cells were observed by light microscopy (1000×magnification)."}, "[5]": {"test_system": "E. coli cells", "conditions": "data from previous work; cited from earlier work"}, "[6]": {"test": "Calcein dye leakage from bacteria-mimicking LUVs", "type": "biochemical", "conditions": "positive control, 1.0% Triton X100; average of duplicate experiments", "protocol": "(§1) A calcein leakage assay as previously described was performed to determine the effects of PIN-based peptides on the permeability of synthetic large unilamellar vesicles (LUVs), designed to mimic bacterial and mammalian cell membranes. The phospholipids used were DOPC (1,2-dioleoyl-sn-glycero-3-phosphocholine), with zwitterionic head groups and DOPG (1,2-dioleoyl-sn-glycerol-3-[phosphor-rac-(1-glycerol)]), with negatively charged headgroups (Avanti® Polar lipids, Alabaster, USA). These were used to make DOPC:DOPG (1∶3) LUVs to mimic bacterial cell membranes, or DOPC only, to mimic mammalian cell membranes. Calcein-entrapped LUVs were prepared by the extrusion method using an Avanti mini extrusion apparatus (Avanti® Polar Lipids, Alabaster, USA). The DOPC:DOPG (a 1∶3 mixture) or DOPC were dissolved in chloroform (25 mg/mL) and aliquoted into glass test tubes to give a concentration of 2.6 mM when resuspended in 2 mL buffer. Chloroform was evaporated under a stream of N2 and the lipid films were dried overnight under vacuum. The films were then resuspended in 2.0 mL of 70 mM calcein buffer (in 10 mM Tris-HCl, pH 7.4) and incubated at room temperature for 30 minutes. To increase entrapment of the dye, five repeated freeze\\thaw cycles were used by placing the vial in liquid N2 and then a warm water bath (37°C). The lipid mixture was then extruded through the mini-extruder 10 times through two stacked 0.1 µm pore-size filters. Free calcein was removed by centrifugation (10, 000×g, 10 min) three times and washing with 10 mM Tris, 100 mM NaCl buffer (pH 7.4). Standards of phosphorus (inorganic P; Pi) were prepared (0.05–1.5 mg/mL) using KH2PO4 and read at 820 nm and a linear standard curve was generated (Figure S1 in File S1). The phospholipid concentration of the vesicle preparations was determined by a total phosphorus assay. The assay reagent was prepared fresh by mixing 1 part of 1% ascorbic acid with 6 parts of 0.42% ammonium molybdate•4H2O in H2SO4 and stored on ice. 7 µL of it was added to 3 µL of vesicle suspensions and incubated for 20 min at 45°C. […] The standard curve of phosphorus standards (Figure S1 in File S1) was used to determine the Pi concentration in a LUV preparation, and this was converted to phospholipid concentration (Table S1 in File S1) to adjust the preparations to the required 10 µM phospholipid concentration prior to peptide treatment.\n(§2) The calcein-filled LUVs were diluted with 10 mM Tris, 100 mM NaCl buffer (pH 7.4) to a final phospholipid concentration of 10 µM. The experiments were performed in a Varian Cary Eclipse fluorescence spectrophotometer with excitation and emission wavelengths of 496 nm and 515 nm, slit widths of […] and a PMT detector of 600 V. The peptides (PuroA, Pina-M, Pina-W→F and PuroB) were added to LUVs to a final peptide concentration of 8–125 µg/mL in 100 µL volumes and the fluorescence (F) monitored for 5 min at 60 s intervals. The total calcein fluorescence (FT) was determined by addition of 1.0% Triton X100. The dye leakage was calculated as % Leakage = ((F – F0)/(FT – F0)), F0 being fluorescence of each sample at T = 0."}, "[7]": {"test": "Calcein dye leakage from mammalian-mimicking LUVs", "type": "biochemical", "conditions": "positive control, 1.0% Triton X100; average of duplicate experiments", "protocol": "as §1, §2"}},
  "note": "Values joined by “and” are separate entries in the source; they are usually repeats but may differ in a detail not shown here. Identical values can stand only once.",
  "data": [
    {"compound": "CC[C@H](C)[C@H](N)C(=O)N[C@@H](CC(C)C)C(=O)N1CCC[C@H]1C(=O)N[C@@H](Cc1c[nH]c2ccccc12)C(=O)N[C@@H](CCCCN)C(=O)N[C@@H](Cc1c[nH]c2ccccc12)C(=O)N1CCC[C@H]1C(=O)N[C@@H](Cc1c[nH]c2ccccc12)C(=O)N[C@@H](Cc1c[nH]c2ccccc12)C(=O)N1CCC[C@H]1C(=O)N[C@@H](Cc1c[nH]c2ccccc12)C(=O)N[C@@H](CCCNC(=N)N)C(=O)N[C@@H](CCCNC(=N)N)C(N)=O", "note": "[Indolicidin, reference compound]", "values": [
      {"measurement": "MIC against S. cerevisiae", "setting": "[1]", "result": 125, "unit": "µg/mL"},
      {"measurement": "% fluorescent cells (propidium iodide uptake)", "setting": "[2]", "result": 100, "unit": "%"},
      {"measurement": "Peptide concentration inducing gel retardation, Partial", "setting": "[3]", "result": "32 ± 0", "unit": "µg/mL"},
      {"measurement": "Peptide concentration inducing gel retardation, Full", "setting": "[3]", "result": "64 ± 0", "unit": "µg/mL"},
      {"measurement": "Peptide concentration inducing gel retardation, Full", "setting": "[3]; listed as indolicidin", "result": 64, "unit": "µg/mL"},
      {"measurement": "Minimum peptide concentration inducing filamentation in E. coli", "setting": "[4]", "result": "32 ± 0", "unit": "µg/mL"},
      {"measurement": "MIC against E. coli cells", "setting": "[5]", "result": "32 ± 0", "unit": "µg/mL"}
    ]},
    {"compound": "MPLSWFFPRTWGKR-NH2 [GSP-5D, peptide based on the wheat Grain softness protein-1 (Gsp-1-5D)]", "values": [
      {"measurement": "Peptide concentration inducing gel retardation, Partial", "setting": "[3]", "result": "32 ± 0", "unit": "µg/mL"},
      {"measurement": "Peptide concentration inducing gel retardation, Full", "setting": "[3]", "result": "64 µg/mL and 64 ± 0 µg/mL"},
      {"measurement": "MIC against E. coli cells", "setting": "[5]", "result": "64 ± 0", "unit": "µg/mL"}
    ]},
    {"compound": "Triton x100 [reference compound]", "values": [
      {"measurement": "% Calcein leakage from DOPC:DOPG LUVs", "setting": "[6]", "result": 99.0, "unit": "%"},
      {"measurement": "% Calcein leakage from DOPC LUVs", "setting": "[7]", "result": 99.0, "unit": "%"}
    ]}
  ]
}
